Patent US7105516B2, “Compounds for the treatment of premature ejaculation” (Bristol-Myers Squibb Company, priority 2002, dated 2006)
Read-outs that look alike come from different tables or passages of the source.

Columns and labels:
[1] = biological target: T1, human norepinephrine transporters (Homo sapiens, UniProt P23975); assay: Norepinephrine Transporter Binding Assay ([3H]-nisoxetine displacement, hNET cell membranes); conditions: 2.7 nM [3H]-nisoxetine, 1 hr at 4° C., read-out: NE reuptake binding Ki
T1 construct: the text also calls them 'HEK-hNET cells'); membrane homogenates
T1 sequence (P23975 whole entry): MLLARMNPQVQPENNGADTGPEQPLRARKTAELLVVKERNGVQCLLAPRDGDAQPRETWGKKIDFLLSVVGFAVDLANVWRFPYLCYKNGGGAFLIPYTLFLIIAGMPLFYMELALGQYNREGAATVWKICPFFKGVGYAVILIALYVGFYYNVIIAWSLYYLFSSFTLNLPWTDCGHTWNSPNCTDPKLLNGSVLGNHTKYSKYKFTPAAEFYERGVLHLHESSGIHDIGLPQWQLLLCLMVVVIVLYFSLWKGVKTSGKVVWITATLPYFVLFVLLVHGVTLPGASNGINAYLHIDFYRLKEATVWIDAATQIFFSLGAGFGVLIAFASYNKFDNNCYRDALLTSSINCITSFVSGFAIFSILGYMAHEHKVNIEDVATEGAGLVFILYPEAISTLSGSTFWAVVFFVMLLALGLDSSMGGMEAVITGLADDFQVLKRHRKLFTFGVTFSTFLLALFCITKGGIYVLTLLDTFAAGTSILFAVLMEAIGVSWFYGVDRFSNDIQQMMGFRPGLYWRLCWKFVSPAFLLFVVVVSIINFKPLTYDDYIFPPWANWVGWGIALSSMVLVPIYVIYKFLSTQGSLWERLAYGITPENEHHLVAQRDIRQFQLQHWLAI
Experimental: MDCK cells that stably express human norepinephrine transporters (HEK-hNET cells) were supplied by Receptor Biology, Inc. Pellets were resuspended by homogenization in buffer consisting of 50 mM Tris (pH 7.4 at 25° C.), 120 mM NaCl and 5 mM KCl. Membrane homogenates (200 μl/well, 8 ug protein) were incubated with 2.7 nM [^3H]-nisoxetine (specific activity=80 Ci/mMol) and increasing concentrations of test compounds for 1 hr at 4° C. in a total volume of 250 μl. The assay buffer consisted of 50 mM Tris (pH 7.4 at 25° C.), 120 mM NaCl and 5 mM KCl (pH 7.4 with conc. HCl). Plates were incubated for 1 hr at 4° C., then filtered through 0.5% PEI treated Whatman GF/B filters using a Brandel cell harvester. Filters were washed three times with 3 mL of ice-cold tris wash buffer. Non-specific binding was defined with 10 μM desipramine. Amount of radioligand bound in the presence and absence of competitor was analyzed by plotting (−)log drug concentration versus the amount of radioligand specifically bound. The midpoint of the displacement curve (IC50, nM), signifies the potency. Ki values were calculated using the method of Cheng and Prusoff (1973).

[2] = biological target: T2, human serotonin transporters (Homo sapiens, UniProt P31645); assay: Serotonin Transporter Binding Assay ([3H]-citalopram displacement, HEK-hSERT cell membranes); conditions: 1 nM [3H]-citalopram, 1 hr at 25° C.
T2 construct: expressed in transfected cells; membrane homogenates
T2 sequence (P31645 whole entry): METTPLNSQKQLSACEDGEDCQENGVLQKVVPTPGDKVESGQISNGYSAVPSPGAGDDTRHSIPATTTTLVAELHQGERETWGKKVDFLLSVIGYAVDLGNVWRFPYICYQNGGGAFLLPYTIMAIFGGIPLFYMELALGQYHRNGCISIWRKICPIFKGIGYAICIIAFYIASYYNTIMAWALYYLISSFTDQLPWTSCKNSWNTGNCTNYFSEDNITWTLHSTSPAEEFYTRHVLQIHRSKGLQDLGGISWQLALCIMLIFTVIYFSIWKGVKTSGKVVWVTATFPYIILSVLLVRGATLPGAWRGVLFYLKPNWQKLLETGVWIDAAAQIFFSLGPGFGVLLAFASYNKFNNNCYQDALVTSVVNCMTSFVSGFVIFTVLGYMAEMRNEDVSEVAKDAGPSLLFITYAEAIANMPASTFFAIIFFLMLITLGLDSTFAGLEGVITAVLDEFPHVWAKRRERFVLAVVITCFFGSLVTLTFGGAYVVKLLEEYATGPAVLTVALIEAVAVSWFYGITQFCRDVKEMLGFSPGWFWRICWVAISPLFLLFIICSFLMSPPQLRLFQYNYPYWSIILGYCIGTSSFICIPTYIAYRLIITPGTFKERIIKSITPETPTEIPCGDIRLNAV
Experimental: HEK-293 cells that stably express human serotonin transporters (HEK-hSERT cells) were grown at 37° C. in 5% CO2 as a monolayer in medium consisting of EMEM supplemented with 10% fetal bovine serum and G418 sulfate (500 μg/mL). […] Cells were transferred from plates to polypropylene tubes (16×100 mm), centrifuged at 1,200×g for 5 min and were frozen at −80° C. until assay. Following centrifugation, pellets were resuspended by homogenization in buffer consisting of 50 mM Tris (pH 7.7 at 25° C.), 120 mM NaCl and 5 mM KCl and then centrifuged at 32,000×g for 10 min. Following centrifugation, supernatants were discarded and pellets were resuspended in buffer consisting of 50 mM Tris (pH 7.4 at 25° C.), 150 mM NaCl and 5 mM KCl. Membrane homogenates (200 μl/plate) were incubated with 1 nM [^3H]-citalopram (specific activity=85 Ci/mMol) and increasing concentrations of test compounds for 1 hr at 25° C. in a total volume of 250 μl. The assay buffer consisted of 50 mM Tris (pH 7.4 at 25° C.), 120 mM NaCl and 5 mM KCl (pH 7.4 with conc. HCl). Plates were incubated for 1 hr at 25° C., then filtered through 0.5% PEI treated Whatman GF/B filters using a Brandel cell harvester. Filters were washed three times with 3 mL of ice-cold tris wash buffer. Non-specific binding was defined with 10 μM fluoxetine. Amount of radioligand bound in the presence and absence of competitor was analyzed by plotting (−)log drug concentration versus the amount of radioligand specifically bound. The midpoint of the displacement curve (IC50, nM), signifies the potency.

[3] = read-out: 5-HT reuptake binding Ki

Question: With `CN(C)C[C@H]1CCC[C@@H]1c1c[nH]c2ccc(C#N)cc12` (single isomer, unassigned; enantiomerb) [Example 45] as the compound, how does the Ki [1] read?
Answer: > 1000 nM

Question: What about the Ki ([2]; 5-HT reuptake binding Ki) of the same compound?
Answer: < 1 nM

Question: Which results are given for `CC([C@H]1CCCC1c1c[nH]c2ccc(C#N)cc12)N(C)C` (single isomer, unassigned; diastereomer a) [Example 46, (+/−) trans-3-[2-(1-dimethylaminoethyl)cyclopentyl]-1H-indole-5-carbonitrile,diastereomer A]?
Answer: Ki [1]: > 1000 nM; Ki ([2]; 5-HT reuptake binding Ki): < 1 nM

Question: Which Ki [1] does the source give for `CN(Cc1ccccc1)C[C@H]1CCC[C@@H]1c1c[nH]c2ccc(C#N)cc12` (relative stereo) [Example 31, Trans-3-{2-[(benzyl-methyl-amino)-methyl]-cyclopentyl}-1H-indole-5-carbonitrile] here?
Answer: > 1000 nM

Question: What about the Ki [2, 3] of the same compound?
Answer: 10 to 100 nM

Question: What does the source list for `CCNC[C@H]1CCC[C@@H]1c1ccc2[nH]cc(C#N)c2c1` (relative stereo) [Example 37, Trans-5-(ethylaminomethyl-cyclopentyl)-1H-indole-3-carbonitrile]?
Answer: Ki [1]: > 1000 nM; Ki [2, 3]: 100 to 500 nM

Question: `CCN(C)C[C@H]1CCC[C@@H]1c1c[nH]c2ccc(C#N)cc12` (relative stereo) [Example 29, Trans-3-{2-[(ethyl-methyl-amino)-methyl]-cyclopentyl}-1H-indole-5-carbonitrile] was tested. Which Ki [1] did it give?
Answer: > 1000 nM

Question: And the Ki ([2]; 5-HT reuptake binding Ki)?
Answer: 1 to 10 nM

Question: How did the Ki [1] turn out when `CN(C)C[C@H]1CCC[C@@H]1c1cn(C)c2ccc(C#N)cc12` (relative stereo) [Example 32, Trans-3-(2-dimethylaminomethyl-cyclopentyl)-1-methyl-1H-indole-5-carbonitrile] was run?
Answer: > 1000 nM

Question: And the Ki ([2]; 5-HT reuptake binding Ki)?
Answer: 1 to 10 nM

Question: How did the Ki [1] turn out when `N#Cc1ccc2[nH]cc([C@H]3CCC[C@@H]3CN3CCCC3)c2c1` (relative stereo) [Example 30, Trans-3-(pyrrolidin-1-ylmethyl-cyclopentyl)-1H-indole-5-carbonitrile] was run?
Answer: > 1000 nM

Question: And the Ki ([2]; 5-HT reuptake binding Ki)?
Answer: 1 to 10 nM

Question: How did the Ki [1] turn out when `CN(Cc1ccccc1)C[C@H]1CCC[C@@H]1c1ccc2[nH]cc(C#N)c2c1` (relative stereo) [Example 40, Trans-5-{2-[(benzyl-methyl-amino)-methyl]-cyclopentyl}-1H-indole-3-carbonitrile] was run?
Answer: > 1000 nM

Question: What about the Ki [2, 3] of the same compound?
Answer: 10 to 100 nM

Question: Which Ki [1] does the source give for `CCn1cc([C@H]2CCC[C@@H]2CN(C)C)c2cc(C#N)ccc21` (relative stereo) [Example 33, Trans-3-(2-dimethylaminomethyl-cyclopentyl)-1-ethyl-1H-indole-5-carbonitrile] here?
Answer: > 1000 nM

Question: And the Ki [2, 3]?
Answer: 1 to 10 nM

Question: For `CN(C)C[C@H]1CCC[C@@H]1c1ccc2c(c1)c(C#N)cn2C` (relative stereo) [Example 41, Trans-5-(2-dimethylaminomethyl-cyclopentyl)-1-methyl-1H-indole-3-carbonitrile], which Ki [1] is on record?
Answer: > 1000 nM

Question: And the Ki [2, 3]?
Answer: 100 to 500 nM

Question: How did the Ki [1] turn out when `CCN(CC)C[C@H]1CCC[C@@H]1c1c[nH]c2ccc(C#N)cc12` (relative stereo) [Example 28, Trans-3-(2-diethylaminomethyl-cyclopentyl)-1H-indole-5-carbonitrile] was run?
Answer: > 1000 nM

Question: And the Ki ([2]; 5-HT reuptake binding Ki)?
Answer: 100 to 500 nM

Question: With `CCN(CC)C[C@H]1CCC[C@@H]1c1ccc2[nH]cc(C#N)c2c1` (relative stereo) [Example 39, Trans-5-(diethylaminomethyl-cyclopentyl)-1H-indole-3-carbonitrile] as the compound, how does the Ki [1] read?
Answer: > 1000 nM

Question: And the Ki [2, 3]?
Answer: 100 to 500 nM

Question: What does the source list for `CN(C)C[C@H]1CCC[C@@H]1c1c[nH]c2ccc(C#N)cc12` (racemic) [Example 25, Trans-3-(2-dimethylaminomethyl-cyclopentyl)-1H-indole-5-carbonitrile]?
Answer: Ki [1]: > 1000 nM; Ki ([2]; 5-HT reuptake binding Ki): < 1 nM

Question: What does the source list for `CNC[C@H]1CCC[C@@H]1c1ccc2[nH]cc(C#N)c2c1` (relative stereo) [Example 35, Trans-5-(2-methylaminomethyl-cyclopentyl)-1H-indole-3-carbonitrile]?
Answer: Ki [1]: > 1000 nM; Ki [2, 3]: 1 to 10 nM

Question: How did the Ki [1] turn out when `CCN(C)C[C@H]1CCC[C@@H]1c1ccc2[nH]cc(C#N)c2c1` (relative stereo) [Example 38, Trans-5-{2-[(ethyl-methyl-amino)-methyl]-cyclopentyl}-1H-indole-3-carbonitrile] was run?
Answer: > 1000 nM

Question: And the Ki [2, 3]?
Answer: 100 to 500 nM

Question: What does the source list for `CCNC[C@H]1CCC[C@@H]1c1c[nH]c2ccc(C#N)cc12` (relative stereo) [Example 27, Trans-3-(2-ethylaminomethyl-cyclopentyl)-1H-indole-5-carbonitrile]?
Answer: Ki [1]: > 1000 nM; Ki ([2]; 5-HT reuptake binding Ki): 10 to 100 nM

Question: What does the source list for `CN(C)C[C@@H]1CCC[C@H]1c1c[nH]c2ccc(C#N)cc12` (single isomer, unassigned; enantiomer a) [Example 44]?
Answer: Ki [1]: > 1000 nM; Ki ([2]; 5-HT reuptake binding Ki): 10 to 100 nM

Question: What does the source list for `CNC[C@@H]1CCC[C@@H]1c1ccc2[nH]cc(C#N)c2c1` (relative stereo) [Example 42, Cis-5-(methylaminomethyl-cyclopentyl)-1H-indole-3-carbonitrile]?
Answer: Ki [1]: 100 to 500 nM; Ki [2, 3]: 10 to 100 nM

Question: How did the Ki [1] turn out when `CN(C)C[C@H]1CCC[C@@H]1c1ccc2[nH]cc(C#N)c2c1` (relative stereo) [Example 34, Trans-5-(2-dimethylaminomethyl-cyclopentyl)-1H-indole-3-carbonitrile] was run?
Answer: > 1000 nM

Question: What about the Ki [2, 3] of the same compound?
Answer: 1 to 10 nM

Question: Which results are given for `CNC[C@H]1CCC[C@@H]1c1c[nH]c2ccc(C#N)cc12` (relative stereo) [Example 26, Trans-3-(2-methylaminomethyl-cyclopentyl)-1H-indole-5-carbonitrile]?
Answer: Ki [1]: > 1000 nM; Ki [2, 3]: 1 to 10 nM

Question: What does the source list for `N#Cc1c[nH]c2ccc([C@H]3CCC[C@@H]3CN3CCCC3)cc12` (relative stereo) [Example 36, Trans-5-(2-pyrrolidin-1-ylmethyl-cyclopentyl)-1H-indole-3-carbonitrile]?
Answer: Ki [1]: > 1000 nM; Ki [2, 3]: 100 to 500 nM
